Measured values: patent US9532569B2 (INSTITUT NATIONAL DE LA RECHERCHE AGRONOMIQUE, priority 2012, dated 2017)

Assay: Stability in aqueous medium (UPLC, % nondegraded compound)
Format: physicochemical
Experimental: The stability in aqueous medium of the compound (IIa) according to the invention and that of GR24 as comparative compound was evaluated in the following way.
Each compound was diluted in acetone (1 ml), then 50 μl of each solution were diluted with methanol (175 μl) and water (750 μl) so as to obtain a compound concentration of 50 μg/ml.
The aqueous solution thus obtained was incubated at 21° C. in HPLC vials.
Indanol (25 μl of a solution at 1 mg/ml in acetone) was added to each solution in order to serve as an internal standard.
The degradation of each compound over time was monitored by analysis of samples taken from the solution at various time intervals, by Ultra Performance Liquid Chromatograpy (UPLC) by means of an Acquity UPLC HSS C18 column (1.8 μm, 2.1×50 mm), eluted first of all with a solution of acetonitrile at 5% in water containing 0.1% of formic acid, for 0.5 min, then with a gradient of 5% to 100% of acetonitrile in water containing 0.1% of formic acid, for 6.5 min, and with 100% of acetonitrile containing 0.1% of formic acid for 3 min. The column was maintained at a temperature of 40° C., with a flow of 0.6 ml/min.
The compounds eluted from the column were detected with a photodiode array detector.
The relative amount of nondegraded compound in the solution was determined by comparison with the internal standard.
In a second experiment, the stability in aqueous medium of the compounds (IIa) and (IIIb) according to the invention, and that of GR24 as comparative compound, was evaluated according to the protocol described above.

CC1=C(C)C(Sc2ccc(Cl)cc2)OC1=O (centres unmarked) [Compound (IIa), 5-((4-chlorophenyl)thio)-3,4-dimethylfuran-2(5H)-one]
chemical stability in aqueous solution (% of nondegraded compound as a function of incubation time) (50 μg/ml of compound in methanol/water: 1/4, pH 6.7, 21° C., FIG. 1): very high chemical stability in aqueous solution, much higher than that of GR24
chemical stability in aqueous solution (% of nondegraded compound as a function of incubation time) (second experiment, longer incubation times, 50 μg/ml in methanol/water: 1/4, pH 6.7, 21° C., FIG. 2): very high chemical stability in aqueous solution, much higher than that of GR24
